Data from PMC6216040, “Repurposing of an old drug: In vitro and in vivo efficacies of buparvaquone against Echinococcus multilocularis” (International Journal for Parasitology: Drugs and Drug …, 2018).

Tested on: E. multilocularis metacestodes
Test: PGI-assay: drug-induced damage on in vitro cultured metacestodes (Pathogen Box screening cascade and EC50)
Type: cell-based, Echinococcus multilocularis
Details: for PGI release, % of the Tx-100 control, 5d / PGI release, % of the Tx-100 control, 12d: 10 µM, singlets; for PGI release, % of the Tx-100 control, 5d / PGI release, % of Tx-100 control, average, 5d: 5 days of incubation; for PGI release, % of the Tx-100 control, 12d / PGI release, % of Tx-100 control, average, 12d: 12 days of incubation
[1] = confirmatory screening at 10 µM in triplicates, values as % of Tx-100 control

Compound	PGI release, % of the Tx-100 control, 5d [%]	PGI release, % of the Tx-100 control, 12d [%]	further results
FC(F)(F)c1cc(NCCc2ccccc2)nc(-c2ccccn2)n1 [MMV659010]	0.61	3.66	
Brc1cncc(-c2cc(NCCCn3ccnc3)nc(-c3ccccc3)n2)c1 [MMV661713]	-3.38	-0.86	
Clc1cccc(C(c2ccc(CN3CCNCC3)cc2)n2ccnc2)c1 (stereo not drawn) [MMV663250]	0.31	-0.31	
O=C(NCCN1CCCC1)c1cc(NCCCCN2CCC(F)(F)CC2)nc2ccc(Cl)cc12 [MMV667494]	-0.60	-1.11	
Nc1ncc(-c2ccc(C(F)(F)F)nc2)cc1-c1ccc(C(F)(F)F)nc1 [MMV668727]	-0.66	-0.51	
COc1ccc(OC)c(NCc2ccc3nc(N)nc(N)c3c2Cl)c1 [MMV675968]	-0.10	8.05	
CC(C)(C)c1ccc(N[C@@H]2CCCC[C@H]2NC(=O)c2ccco2)cc1 [MMV675969]	1.02	-2.49	
COc1ccc(-c2nn(C(C)C)c3ncnc(N)c23)cc1OC [MMV675993]	-5.16	-3.42	
Clc1ccc(-n2cc(COc3ccnc4ccccc34)nn2)cc1 [MMV675994]	-6.67	46.84	PGI release, % of Tx-100 control, average, 5d (1 µM, triplicates): -4.24%; PGI release, % of Tx-100 control, average, 12d (1 µM, triplicates): -12.79%; activity in the screen at 10 μM (confirmed in triplicates, >20% relative PGI release) (10 μM, 5 and 12 days): active; PGI release, % of Tx-100 control, average, 5d [1]: 26.02%; PGI release, % of Tx-100 control, average, 12d [1]: 73.87%
COc1ccc(N(CCc2cccc(C)n2)C(C)=O)cc1 [MMV675995]	1.72	1.78	
COc1ccc(N(CCc2cccc(C)n2)C(=O)C2CCCCC2)cc1 [MMV675996]	0.13	-0.16	
N#CCN(CCCCN1CCN(c2ccc(F)cc2)CC1)C(=O)OCc1ccccc1 [MMV675997]	-0.27	-1.46	
COc1ccc(C(=N)N)cc1-c1cn(-c2ccc(C(=N)N)cc2)nn1 [MMV675998]	-0.22	0.24	
O=C(Nc1c(O)cccc1-c1nc2c(C(=O)O)cccc2o1)c1cc(-c2ccccc2)on1 [MMV676008]	-0.73	-0.73	
Clc1ccc(Cl)c(CO[C@H]2CCCC[C@@H]2n2ccnc2)c1 [MMV676048]	1.62	0.30	
CS(=O)(=O)N1CCC(Cn2nc(Cc3cccc4ccccc34)c3c(N)ncnc32)CC1 [MMV676050]	0.49	0.36	
COc1cc(NC(=O)Cc2nn(C)c(=O)c3ccccc23)ccc1Cl [MMV676053]	-2.85	-1.21	
CC(C)(C)OC(=O)N1CCN(c2cc(-c3ccc(Oc4ccccc4)cc3)n[nH]2)CC1 [MMV676057]	-3.83	2.21	
CCCCc1ccc(NC(=O)Nc2ccc(O[C@H]3CCCC[C@@H]3N(C)c3ccccc3)c(F)c2)cc1 [MMV676063]	2.73	76.51	PGI release, % of Tx-100 control, average, 5d [1]: -1.39%; PGI release, % of Tx-100 control, average, 12d [1]: -1.33%
CC(=O)N(CCN(C(=O)c1ccc(F)cc1)c1ccccc1)c1ccccc1 [MMV676064]	-0.20	0.0545	
Clc1cccc(CO[C@H]2CCc3ccccc3[C@@H]2n2ccnn2)c1 [MMV676159]	-0.04	-0.65	
c1ccc(Oc2ccc(-c3cc(CN4CCOCC4)[nH]n3)cc2)cc1 [MMV676161]	-0.68	-1.33	
O=C(Nc1ccccc1-c1nc2c(C(=O)O)cccc2o1)c1ccccc1 [MMV676162]	0.15	0.13	
Nc1ncnc2c1c(Cc1cccc3ccccc13)nn2CC1CCNCC1 [MMV676182]	0.88	-0.92	
COC(=O)c1cccc2oc(-c3cccc(OC)c3NC(=O)c3cc(-c4ccccc4)on3)nc12 [MMV676186]	1.00	13.03	
CC(C)C(Oc1cccc2ccccc12)C(=O)O (stereo not drawn) [MMV676191]	-0.44	-4.34	
O=C(c1ccc(F)cc1)N(CCNc1ccccc1)c1ccccc1 [MMV676204]	0.89	22.26	PGI release, % of Tx-100 control, average, 5d [1]: -0.89%; PGI release, % of Tx-100 control, average, 12d [1]: -0.80%
